Earlier results in patent publication US20210402001A1, “Zinc Porters, and their Monoclonal Antibody Conjugates, for the Prevention and Treatment of COVID-19 (SARS-CoV-2), Other Infections, and Cancers” (priority 2020, published 2021).

Experiments:
[1] = intranasal
blood platelets = details: healthy individuals, single oral dose of 220 mg
[2] = oxidized HDEFA5
trypsin = details: reduced state, five trypsin cleavage sites

O=S(=O)([O-])[O-].[Zn+2] [Zn sulfate]
loss of smell (anosmia) [1]: profound acute anosmia
platelet activity (blood platelets): hyperactive

ATCYCRTGRCATRESLSGVCEISGRLYRLCCR [HDEFA5]
Zn dissociation constant [2]: picomolar
degradation by gut trypsin (trypsin): rapidly degraded
